Patent US4973675A, “Hybrid nitrosoureidoanthracyclines having antitumor activity” (University of Tennessee Research Center, priority 1989, dated 1990)
“Also recorded” adds a separate entry of the source.

Experiments:
calf thymus DNA = experiment: Interstrand cross-link formation in isolated calf thymus DNA, ethidium bromide fluorescence assay; format: biochemical
Description: To further assess the alkylation potential of AD 312, the ability of this agent to form interstrand cross-links in isolated calf thymus DNA was examined using an ethidium bromide fluorescence assay. […] In one set of experiments, DNA was exposed briefly to AD 312 (30 minutes at 50° C.) before being reisolated by precipitation with ethanol. […] Such continuing reaction reflects the presence in the DNA of long-lived precursors of crosslinks similar to what has been found for the classical antitumor chloroethylnitrosoureas. […] It appears, therefore, that AD 312 induces DNA interstrand crosslinks via an initial adduct at O^6 -guanine.

[1] = tested on: murine P388/adriamycin-resistant leukemia; experiment: In vivo antitumor activity vs. murine P388/adriamycin-resistant leukemia (P388/ADR); settings: for Median increase in lifespan / Net mean percent weight change, day 7 / Long-term survivors / Range of death (dying animals): ip; for Long-term survivors: sacrifice day 60
Description: Assays were run essentially according to the established protocols of the U.S. National Cancer Institute (Geran et al., 1972 "Protocols for Screening Chemical Agents and Natural Products Against Animal Tumors and Other Biological Systems" (3rd Ed.), Cancer Chemotherapy Rep. [3]33, 1-103.), with the test agent given at 3-5 incremental dose levels in each screening experiment and with median survival of treated groups referenced against data for untreated controls.
*B6D2F1 males; 1 × 10^6 tumor cell inoculum ip day 0; treatment

white blood cells = experiment: Hematotoxicity study in non-tumor-bearing animals, white blood cell count; format: in vivo, mice
Excerpt: FIG. 3 is a graphic representation of white blood cell counts in mice following a single dose of 2-chloroethylnitrosoureidodaunorubicin.
Clinically and in laboratory animals, anthracycline antibiotics and chloroethylnitrosourea alkylating agents currently used in medical oncology are known to be strongly myelosuppressive, with the effects of the alkylating agents on suppression of bone marrow activity being particularly profound and long-lasting.

murine P388 leukemia = experiment: In vivo antitumor activity vs. murine P388 (P388/S) leukemia; design: species or system murine (B6D2F1 males); settings: for Long-term survivors / Median increase in lifespan / Median survival / Net mean percent weight change, day 7 / Range of deaths (dying animals) / Range of death (dying animals): ip
Excerpt: Initial studies utilized a multiple dose schedule, with drug administered once daily on days 1, 2, 3 and 4. […] The marked activity of AD 312 in this system has been confirmed in multiple separate experiments.
Additional studies were done with AD 312 vs. murine P388/S under more demanding conditions of assay.
^a Summary results of 4 separate experiments. B6D2F1 males; 1 ×

[2] = tested on: plasmid PC15 supercoiled DNA; experiment: DNA unwinding assay (interference with DNA topoisomerase I-mediated unwinding; drug-DNA intercalation); format: biochemical
[3] = P388/ADR, single dose 40.5 mg/kg day 1
[4] = P388/S, 17.5 mg/kg/day, days 1-4
[5] = P388/S, single dose 40.5 mg/kg day 1
[6] = P388/S, single dose 40.5 mg/kg day 3

COc1cccc2c1C(=O)c1c(O)c3c(c(O)c1C2=O)C[C@@](O)(C(C)=O)C[C@@H]3O[C@H]1C[C@H](NC(=O)N(CCCl)N=O)[C@H](O)[C@H](C)O1 [AD 312, 2-chloroethylnitrosoureidodaunorubicin]
interstrand crosslink formation (calf thymus DNA; 10 mM, 4 hours at 50° C.): appreciable interstrand crosslinks | continued crosslink formation after drug removal (calf thymus DNA; 30 min exposure at 50° C., DNA reisolated, further incubation at 50° C.): crosslinks continued to form for several hours | effect of O^6-alkylguanine-DNA alkyltransferase on crosslink formation (calf thymus DNA; enzyme added to AD 312-treated DNA): can block the protracted second step in crosslink formation | curative rate ([1]; P388/ADR, once daily for 4 days, 15.0 to 20.0 mg/kg/day (3 dose levels)): 100% | dose toxicity [1, 3]: nontoxic | therapeutic effect [1, 3]: significant therapeutic effect | Median increase in lifespan ([1]; 15.0 mg/kg qd 1-4): > +500% | Net mean percent weight change, day 7 ([1]; 15.0 mg/kg qd 1-4): -4% | Long-term survivors ([1]; 15.0 mg/kg qd 1-4): 7/7 | Median increase in lifespan ([1]; 17.5 mg/kg qd 1-4): > +500% | Net mean percent weight change, day 7 ([1]; 17.5 mg/kg qd 1-4): -9% | Long-term survivors ([1]; 17.5 mg/kg qd 1-4): 7/7 | Median increase in lifespan ([1]; 20.0 mg/kg qd 1-4): > +500% | Net mean percent weight change, day 7 ([1]; 20.0 mg/kg qd 1-4): -9% | Long-term survivors ([1]; 20.0 mg/kg qd 1-4): 7/7 | Median increase in lifespan ([1]; 27.0 mg/kg d1 only): > +500% | Net mean percent weight change, day 7 ([1]; 27.0 mg/kg d1 only): +5% | Range of death (dying animals) ([1]; 27.0 mg/kg d1 only): 19,26 days | Long-term survivors ([1]; 27.0 mg/kg d1 only): 5/7 | Median increase in lifespan ([1]; 40.5 mg/kg d1 only): > +500% | Net mean percent weight change, day 7 ([1]; 40.5 mg/kg d1 only): -0.5% | Range of death (dying animals) ([1]; 40.5 mg/kg d1 only): 13,27 days | Long-term survivors ([1]; 40.5 mg/kg d1 only): 5/7 | acute toxicity (white blood cells; dose 60.75 mg/kg): still not at an acute toxic level | recovery of white blood cell count (white blood cells; dose 60.75 mg/kg): rapid recovery again being achieved | reduction in white blood cell count (white blood cells; dose 60.75 mg/kg, day 4): about 67% | day of white blood cell nadir (white blood cells; single dose 40.5 mg/kg): 4 days | full recovery of white blood cell count (white blood cells; single dose 40.5 mg/kg): ≤ 10 days | lowering of white blood cell count (white blood cells; single dose 40.5 mg/kg): only a modest lowering of the white blood cell count | white blood cell count nadir (white blood cells; single dose 40.5 mg/kg, day 4, median 9×10^6 before drug): 6×10^6 cells/ml | 60-day survival (murine P388 leukemia; [4]): 100% | drug toxicity (murine P388 leukemia; [4]): without evidence of drug toxicity | autopsy of surviving animals (murine P388 leukemia; P388/S, gross examination at termination): no evidence of tumor or other abnormalities was observed on gross examination | 60-day survival (murine P388 leukemia; [5]): 100% | antitumor effect (murine P388 leukemia; [5]): significant antitumor effect | dose toxicity (murine P388 leukemia; [5]): nontoxic | animals cured (murine P388 leukemia; [6]): 6 of 7 | day of the lone death (murine P388 leukemia; [6]): 45 days | Long-term survivors (murine P388 leukemia; 0.5 mg/kg qd 1-4): 0/7 | Median increase in lifespan (murine P388 leukemia; 0.5 mg/kg qd 1-4): +10% | Median survival (murine P388 leukemia; 0.5 mg/kg qd 1-4): 11 days | Net mean percent weight change, day 7 (murine P388 leukemia; 0.5 mg/kg qd 1-4): +13% | Range of deaths (dying animals) (murine P388 leukemia; 0.5 mg/kg qd 1-4): 10 to 11 days | Long-term survivors (murine P388 leukemia; 1.0 mg/kg qd 1-4): 0/7 | Median increase in lifespan (murine P388 leukemia; 1.0 mg/kg qd 1-4): +20% | Median survival (murine P388 leukemia; 1.0 mg/kg qd 1-4): 12 days | Net mean percent weight change, day 7 (murine P388 leukemia; 1.0 mg/kg qd 1-4): +6% | Range of deaths (dying animals) (murine P388 leukemia; 1.0 mg/kg qd 1-4): 11 to 18 days | Long-term survivors (murine P388 leukemia; 2.0 mg/kg qd 1-4 (Table 4)): 0/7 | Median increase in lifespan (murine P388 leukemia; 2.0 mg/kg qd 1-4 (Table 4)): +30% | Median survival (murine P388 leukemia; 2.0 mg/kg qd 1-4 (Table 4)): 13 days | Net mean percent weight change, day 7 (murine P388 leukemia; 2.0 mg/kg qd 1-4 (Table 4)): +7% | Range of deaths (dying animals) (murine P388 leukemia; 2.0 mg/kg qd 1-4 (Table 4)): 12 to 14 days | Long-term survivors (murine P388 leukemia; 2.7 mg/kg qd 1-4): 0/7 | Median increase in lifespan (murine P388 leukemia; 2.7 mg/kg qd 1-4): +60% | Median survival (murine P388 leukemia; 2.7 mg/kg qd 1-4): 16 days | Net mean percent weight change, day 7 (murine P388 leukemia; 2.7 mg/kg qd 1-4): +4% | Range of deaths (dying animals) (murine P388 leukemia; 2.7 mg/kg qd 1-4): 16 to 17 days | Long-term survivors (murine P388 leukemia; 4.0 mg/kg qd 1-4 (Table 4)): 0/7 | Median increase in lifespan (murine P388 leukemia; 4.0 mg/kg qd 1-4 (Table 4)): +75% | Median survival (murine P388 leukemia; 4.0 mg/kg qd 1-4 (Table 4)): 17.5 days | Net mean percent weight change, day 7 (murine P388 leukemia; 4.0 mg/kg qd 1-4 (Table 4)): +2% | Range of deaths (dying animals) (murine P388 leukemia; 4.0 mg/kg qd 1-4 (Table 4)): 15 to 20 days | Long-term survivors (murine P388 leukemia; 6.0 mg/kg qd 1-4): 0/7 | Median increase in lifespan (murine P388 leukemia; 6.0 mg/kg qd 1-4): +110% | Median survival (murine P388 leukemia; 6.0 mg/kg qd 1-4): 21 days | Net mean percent weight change, day 7 (murine P388 leukemia; 6.0 mg/kg qd 1-4): +4% | Range of deaths (dying animals) (murine P388 leukemia; 6.0 mg/kg qd 1-4): 19 to 24 days | Median increase in lifespan (murine P388 leukemia; 9.0 mg/kg qd 1-4): +250% | Median survival (murine P388 leukemia; 9.0 mg/kg qd 1-4): 35 days | Net mean percent weight change, day 7 (murine P388 leukemia; 9.0 mg/kg qd 1-4): -2% | Range of deaths (dying animals) (murine P388 leukemia; 9.0 mg/kg qd 1-4): 24 to 35 days | Long-term survivors (murine P388 leukemia; 9.0 mg/kg qd 1-4, sacrifice day 43): 3/7 | Median increase in lifespan (murine P388 leukemia; 10.0 mg/kg qd 1-4): > +500% | Net mean percent weight change, day 7 (murine P388 leukemia; 10.0 mg/kg qd 1-4): -1% | Range of deaths (dying animals) (murine P388 leukemia; 10.0 mg/kg qd 1-4): 38 days | Long-term survivors (murine P388 leukemia; 10.0 mg/kg qd 1-4, sacrifice day 60): 5/7 | Median increase in lifespan (murine P388 leukemia; 11.0 mg/kg qd 1-4): > +500% | Net mean percent weight change, day 7 (murine P388 leukemia; 11.0 mg/kg qd 1-4): +1% | Range of deaths (dying animals) (murine P388 leukemia; 11.0 mg/kg qd 1-4): 28 days | Long-term survivors (murine P388 leukemia; 11.0 mg/kg qd 1-4, sacrifice day 60): 5/6 | Long-term survivors (murine P388 leukemia; 12.0 mg/kg day 1 only): 0/7 | Median increase in lifespan (murine P388 leukemia; 12.0 mg/kg day 1 only): +100% | Median survival (murine P388 leukemia; 12.0 mg/kg day 1 only): 20 days | Net mean percent weight change, day 7 (murine P388 leukemia; 12.0 mg/kg day 1 only): +6% | Range of death (dying animals) (murine P388 leukemia; 12.0 mg/kg day 1 only): 16 to 22 days | Median increase in lifespan (murine P388 leukemia; 12.5 mg/kg qd 1-4): > +540% | Range of deaths (dying animals) (murine P388 leukemia; 12.5 mg/kg qd 1-4): 35 to 40 days | Long-term survivors (murine P388 leukemia; 12.5 mg/kg qd 1-4, sacrifice day 64): 4/7 | Median increase in lifespan (murine P388 leukemia; 15.0 mg/kg qd 1-4): > +540% | Net mean percent weight change, day 7 (murine P388 leukemia; 15.0 mg/kg qd 1-4): -1% | Range of deaths (dying animals) (murine P388 leukemia; 15.0 mg/kg qd 1-4): 32 to 39 days | Long-term survivors (murine P388 leukemia; 15.0 mg/kg qd 1-4, sacrifice day 64): 4/7 | Median increase in lifespan (murine P388 leukemia; 17.5 mg/kg qd 1-4): > +540% | Net mean percent weight change, day 7 (murine P388 leukemia; 17.5 mg/kg qd 1-4): -1% | Long-term survivors (murine P388 leukemia; 17.5 mg/kg qd 1-4, sacrifice day 64): 6/6 | Median increase in lifespan (murine P388 leukemia; 18.0 mg/kg day 1 only): +210% | Median survival (murine P388 leukemia; 18.0 mg/kg day 1 only): 31 days | Net mean percent weight change, day 7 (murine P388 leukemia; 18.0 mg/kg day 1 only): +7% | Range of death (dying animals) (murine P388 leukemia; 18.0 mg/kg day 1 only): 18 to 35 days | Long-term survivors (murine P388 leukemia; 18.0 mg/kg day 1 only, sacrifice day 60): 1/7 | Median increase in lifespan (murine P388 leukemia; 27.0 mg/kg day 1 only): +230% | Median survival (murine P388 leukemia; 27.0 mg/kg day 1 only): 33 days | Net mean percent weight change, day 7 (murine P388 leukemia; 27.0 mg/kg day 1 only): +9% | Range of death (dying animals) (murine P388 leukemia; 27.0 mg/kg day 1 only): 23 to 33 days | Long-term survivors (murine P388 leukemia; 27.0 mg/kg day 1 only, sacrifice day 60): 3/7 | Long-term survivors (murine P388 leukemia; 27.0 mg/kg day 3 only): 0/7 | Median increase in lifespan (murine P388 leukemia; 27.0 mg/kg day 3 only): +210% | Median survival (murine P388 leukemia; 27.0 mg/kg day 3 only): 31 days | Net mean percent weight change, day 7 (murine P388 leukemia; 27.0 mg/kg day 3 only): +17% | Range of death (dying animals) (murine P388 leukemia; 27.0 mg/kg day 3 only): 12 to 49 days | Median increase in lifespan (murine P388 leukemia; 40.5 mg/kg day 1 only): > +500% | Net mean percent weight change, day 7 (murine P388 leukemia; 40.5 mg/kg day 1 only): -3% | Long-term survivors (murine P388 leukemia; 40.5 mg/kg day 1 only, sacrifice day 60): 7/7 | Median increase in lifespan (murine P388 leukemia; 40.5 mg/kg day 3 only): > +500% | Net mean percent weight change, day 7 (murine P388 leukemia; 40.5 mg/kg day 3 only): -4% | Range of death (dying animals) (murine P388 leukemia; 40.5 mg/kg day 3 only): 45 days | Long-term survivors (murine P388 leukemia; 40.5 mg/kg day 3 only, sacrifice day 60): 6/7 | toxicity / myelosuppression at curative doses (murine P388 leukemia; tumor-bearing animals): No such effect appears to be present in tumor-bearing animals; also recorded: lack of toxicity at the curative dose levels | relative strength of drug-DNA intercalation (arbitrary scale) ([2]; 0 = no intercalation, 9 = very strong intercalation): 5 | interference with topoisomerase I-mediated conversion of supercoiled DNA / intercalation ([2]; 4 concentrations, 125-fold range): the ability of these compounds to intercalate, a prerequisite for topoisomerase II inhibition, is clearly established
